Read-outs that look alike come from different tables or passages of the source.
Experiment: 14-day oral gavage toxicokinetic study in rats
Type: in vivo
Details: male, rat, plasma, po; for concentration at 8 h / concentration at 12 h / concentration at 24 h / concentration at […] / concentration at 0.5 h / concentration at 1 h / concentration at 2 h / concentration at 4 h: rats; for half-life: read-out: t½ (converted)
Experimental: Plasma was obtained from blood samples collected from rats in a composite sampling scheme, with 3 samples collected per sex, per dose, at each target collection time, as illustrated in Table 21 to Table 25. Samples were collected from the vehicle control group on Day 1 and Day 14 at 3 hour after administration. […] Blood samples were collected in tubes containing K3EDTA as an anticoagulant and placed on ice until processed to plasma via centrifugation. Samples were stored frozen at −80° C. until shipment to the bioanalytical laboratory for analysis.
The following parameters were determined:
Cmax: Maximum observed plasma concentration (ng/mL).
A value of 0 ng/mL was assigned to all values below the lower limit of quantitation (BLQ, <10.0 ng/mL).
AUC(0-inf): Area under the plasma concentration vs. time curve extrapolated from 0 to infinity (ng*h/mL), calculated as AUC(0-t)+AUC(t-inf) where AUC(t-inf) is calculated as last measurable concentration (CLast) divided by ke, where ke is the elimination rate constant determined by linear regression of the last three analytically measured points on the log plasma concentration vs. time curve. The selection criteria of the data points for inclusion in the calculation of ke required that at least three data points representing the terminal phase (after Tmax) were regressed and that R2≧0.850 when rounded.
CL: Clearance (L/h/kg), calculated as the dose divided by AUC(0-t).
Vd: Volume of distribution (L/kg), calculated as dose divided by the product of ke and AUC(0-inf).
Vdss: Steady state volume of distribution (L/kg), calculated as clearance […] mean residence time, where mean residence time is calculated as the area under the first moment curve divided by AUC(0-t).
t½: Elimination half-life (h), calculated as ln(2)/ke, where ke is the elimination rate constant determined by linear regression. Half-life was defined as not determined if regression criteria (specified in AUC(0-inf) above) were not met.
Cmax/Dose: Normalized Cmax, calculated as Cmax divided by total dose.
AUC/Dose: Normalized AUC, calculated as AUC(0-t) divided by total dose.
ii. Statistical Analysis Mean and standard deviation (SD) were calculated in Watson. Values of BLQ were assigned a value of 0 ng/mL for mean calculations. Concentration values and derived TK parameters were reported to three significant figures.

[1] = 15 mg/kg, oral 15 mg/kg, Study Day 1, Male
[2] = 15 mg/kg, oral 15 mg/kg, Study Day 14, Male
[3] = 30 mg/kg, oral 30 mg/kg, Study Day 1, Male

`CN1CCN(c2ccc(Nc3ncc4cc5n(c4n3)C3(CCCCC3)CNC5=O)nc2)CC1` [Compound 1, 2′-((5-(4-methylpiperazin-1-yl)pyridin-2-yl)amino)-7′,8′-dihydro-6′H-spiro[cyclohexane-1,9′-pyrazino[1′,2′:1,5]pyrrolo[2,3-d]pyrimidin]-6′-one] gave a concentration at 8 h (15 mg/kg, Mean Compound 1 Plasma Concentration, oral 15 mg/kg, Day 1, 8 h, Male) of 1020 ng/mL, a concentration at 12 h (15 mg/kg, Mean Compound 1 Plasma Concentration, oral 15 mg/kg, Day 1, 12 h, Male) of 618 ng/mL and a concentration at 24 h (15 mg/kg, Mean Compound 1 Plasma Concentration, oral 15 mg/kg, Day 1, 24 h, Male) of 84.5 ng/mL. It also gave a concentration at […] (15 mg/kg, Mean Compound 1 Plasma Concentration, oral 15 mg/kg, Day 1, […], Male) of 35.6 ng/mL, a concentration at 0.5 h (15 mg/kg, Mean Compound 1 Plasma Concentration, oral 15 mg/kg, Day 14, 0.5 h, Male) of 740 ng/mL and a concentration at 1 h (15 mg/kg, Mean Compound 1 Plasma Concentration, oral 15 mg/kg, Day 14, 1 h, Male) of 842 ng/mL. The concentration at 2 h (15 mg/kg, Mean Compound 1 Plasma Concentration, oral 15 mg/kg, Day 14, 2 h, Male) was 1320 ng/mL, the concentration at 4 h (15 mg/kg, Mean Compound 1 Plasma Concentration, oral 15 mg/kg, Day 14, 4 h, Male) was 1080 ng/mL and the concentration at 8 h (15 mg/kg, Mean Compound 1 Plasma Concentration, oral 15 mg/kg, Day 14, 8 h, Male) was 1170 ng/mL. It also gave a concentration at 12 h (15 mg/kg, Mean Compound 1 Plasma Concentration, oral 15 mg/kg, Day 14, 12 h, Male) of 626 ng/mL, a concentration at 24 h (15 mg/kg, Mean Compound 1 Plasma Concentration, oral 15 mg/kg, Day 14, 24 h, Male) of 60.6 ng/mL and a concentration at […] (15 mg/kg, Mean Compound 1 Plasma Concentration, oral 15 mg/kg, Day 14, […], Male) of 107 ng/mL. The AUC(0-inf) [1] was 16000 ng·h/mL, the AUC(0-t) [1] was 15500 ng·h/mL and the Cmax [1] was 1160 ng/mL. For the same compound, the Tmax [1] was 4 h, the half-life [1] was 4.39 h and the AUC(0-t) [2] was 16300 ng·h/mL. It also gave a Cmax [2] of 1320 ng/mL, a Tmax [2] of 2 h and a half-life [2] of 3.7 h. The concentration at 0.5 h (30 mg/kg, Individual Compound 1 Plasma Concentration, daily oral 30 mg/kg, Day 1, Male, 0.5 h) was 1450 ng/mL, the concentration at 1 h (30 mg/kg, Individual Compound 1 Plasma Concentration, daily oral 30 mg/kg, Day 1, Male, 1 h) was 1620 ng/mL and the concentration at 2 h (30 mg/kg, Individual Compound 1 Plasma Concentration, daily oral 30 mg/kg, Day 1, Male, 2 h) was 1810 ng/mL. It also gave a concentration at 4 h (30 mg/kg, Individual Compound 1 Plasma Concentration, daily oral 30 mg/kg, Day 1, Male, 4 h) of 2660 ng/mL, a concentration at 8 h (30 mg/kg, Individual Compound 1 Plasma Concentration, daily oral 30 mg/kg, Day 1, Male, 8 h) of 2000 ng/mL and a concentration at 12 h (30 mg/kg, Individual Compound 1 Plasma Concentration, daily oral 30 mg/kg, Day 1, Male, 12 h) of 1930 ng/mL. For the same compound, the concentration at 24 h (30 mg/kg, Individual Compound 1 Plasma Concentration, daily oral 30 mg/kg, Day 1, Male, 24 h) was 280 ng/mL, the concentration at 0.5 h (30 mg/kg, Individual Compound 1 Plasma Concentration, daily oral 30 mg/kg, Day 14, Male, 0.5 h) was 977 ng/mL and the concentration at 2 h (30 mg/kg, Individual Compound 1 Plasma Concentration, daily oral 30 mg/kg, Day 14, Male, 2 h) was 1630 ng/mL. It also gave a concentration at 4 h (30 mg/kg, Individual Compound 1 Plasma Concentration, daily oral 30 mg/kg, Day 14, Male, 4 h) of 2080 ng/mL, a concentration at 8 h (30 mg/kg, Individual Compound 1 Plasma Concentration, daily oral 30 mg/kg, Day 14, Male, 8 h) of 1750 ng/mL and a concentration at 12 h (30 mg/kg, Individual Compound 1 Plasma Concentration, daily oral 30 mg/kg, Day 14, Male, 12 h) of 1230 ng/mL. The concentration at 24 h (30 mg/kg, Individual Compound 1 Plasma Concentration, daily oral 30 mg/kg, Day 14, Male, 24 h) was 208 ng/mL, the concentration at […] (30 mg/kg, Individual Compound 1 Plasma Concentration, daily oral 30 mg/kg, Day 14, Male, […]) was 197 ng/mL and the concentration at 0.5 h (30 mg/kg, Mean Compound 1 Plasma Concentration, oral 30 mg/kg, Day 1, 0.5 h, Male) was 1420 ng/mL. It also gave a concentration at 1 h (30 mg/kg, Mean Compound 1 Plasma Concentration, oral 30 mg/kg, Day 1, 1 h, Male) of 1400 ng/mL, a concentration at 2 h (30 mg/kg, Mean Compound 1 Plasma Concentration, oral 30 mg/kg, Day 1, 2 h, Male) of 1620 ng/mL and a concentration at 4 h (30 mg/kg, Mean Compound 1 Plasma Concentration, oral 30 mg/kg, Day 1, 4 h, Male) of 2240 ng/mL. The concentration at 8 h (30 mg/kg, Mean Compound 1 Plasma Concentration, oral 30 mg/kg, Day 1, 8 h, Male) was 1860 ng/mL, the concentration at 24 h (30 mg/kg, Mean Compound 1 Plasma Concentration, oral 30 mg/kg, Day 1, 24 h, Male) was 234 ng/mL and the concentration at […] (30 mg/kg, Mean Compound 1 Plasma Concentration, oral 30 mg/kg, Day 1, […], Male) was 208 ng/mL. For the same compound, the concentration at 0.5 h (30 mg/kg, Mean Compound 1 Plasma Concentration, oral 30 mg/kg, Day 14, 0.5 h, Male) was 993 ng/mL, the concentration at 1 h (30 mg/kg, Mean Compound 1 Plasma Concentration, oral 30 mg/kg, Day 14, 1 h, Male) was 1530 ng/mL and the concentration at 2 h (30 mg/kg, Mean Compound 1 Plasma Concentration, oral 30 mg/kg, Day 14, 2 h, Male) was 1590 ng/mL. The concentration at 4 h (30 mg/kg, Mean Compound 1 Plasma Concentration, oral 30 mg/kg, Day 14, 4 h, Male) was 2030 ng/mL, the concentration at 8 h (30 mg/kg, Mean Compound 1 Plasma Concentration, oral 30 mg/kg, Day 14, 8 h, Male) was 1880 ng/mL and the concentration at 12 h (30 mg/kg, Mean Compound 1 Plasma Concentration, oral 30 mg/kg, Day 14, 12 h, Male) was 1300 ng/mL. The concentration at […] (30 mg/kg, Mean Compound 1 Plasma Concentration, oral 30 mg/kg, Day 14, […], Male) was 207 ng/mL, the AUC(0-inf) [3] was 34700 ng·h/mL and the AUC(0-t) [3] was 33000 ng·h/mL. The Cmax [3] was 2240 ng/mL, the Tmax [3] was 4 h and the half-life [3] was 5.05 h. The AUC(0-inf) (30 mg/kg, oral 30 mg/kg, Study Day 14, Male) was 30700 ng·h/mL.
